Measured values published in the NIST ThermoML archive (doi:10.1016/j.jct.2016.09.022).

How the values were obtained:
[1] = Liquid; for speed of sound: Frequency=1.5 MHz, Single path-length method; for mass density: 298.15 K, 101.33 kPa, Vibrating tube method
[2] = refractive index (Na D-line) (dimensionless); settings: 298.15 K; 101.33 kPa; Liquid; Standard Abbe refractometry

Cc1ccccc1 [toluene]
speed of sound [m/s], [1]
Settings	283.15 K	293.15 K	303.15 K	313.15 K	323.15 K	333.15 K	343.15 K
100 kPa	1369.5	1327.9	1284.1	1241.9	1200.2	1156.6	1118
5100 kPa	1395.4	1352.2	1309.8	1269	1229.2	1187.4	1149.1
10100 kPa	1418.1	1376	1334.3	1294.5	1256.4	1215.9	1178.9
20100 kPa	1460.8	1420.5	1380.9	1341	1306.4	1268.1	1234.3
30100 kPa	1500.8	1462	1424	1387	1352.7	1315.7	1283.9
40100 kPa	1538.7	1500.9	1464.7	1429.5	1396.3	1360.3	1329.5
50100 kPa	1574.4	1537.9	1503.3	1468.9	1436.9	1402.7	1371.4
60100 kPa	1608.1	1572.4	1539.6	1506.4	1474.9	1441.4	1413.5
70100 kPa	1640.3	1605.2	1572.1	1542.7	1511	1478.2	1451.5
80100 kPa	1670.9	1637	1605.2	1576.1	1545.3	1513.1	1487.6
90100 kPa	1700.3	1667.1	1638.2	1607.4	1576.7	1546.5	1522.1
95100 kPa	1714.5	1682	1653.5	1621.2	1591.2	1563	1538.7

Settings	mass density [kg/m3]	refractive index
[1]	862.2	–
[2]	–	1.494

CCO [ethanol]
speed of sound [m/s], [1]
Settings	283.15 K	293.15 K	303.15 K	313.15 K	323.15 K	333.15 K	343.15 K
100 kPa	1198.8	1163.8	1129.3	1094.7	1060.4	1027	992.92
5100 kPa	1227.7	1193.5	1159.8	1127.7	1094.5	1062.7	1030.2
10100 kPa	1255.7	1222.5	1189.8	1157.4	1126.5	1096.3	1065.8
20100 kPa	1306.5	1275.6	1245	1214.7	1185.2	1156.9	1129
30100 kPa	1353.1	1323.7	1295	1266.5	1238.8	1212.1	1185.8
40100 kPa	1397	1368.7	1340.6	1313.5	1287.5	1262.3	1237.5
50100 kPa	1437.9	1410.7	1384.2	1358.2	1332.4	1310.5	1284.9
60100 kPa	1476.1	1449.9	1424.6	1399.1	1374.8	1351.2	1328.8
70100 kPa	1512.5	1486.8	1462.7	1438.4	1414.7	1391.9	1370.2
80100 kPa	1547.2	1522.1	1498.1	1475.7	1452	1429.6	1409.5
90100 kPa	1580.2	1555.7	1532.5	1510.1	1487.5	1466.1	1446.3
95100 kPa	1596.1	1571.8	1549.3	1526.4	1504.5	1483.5	1464.1

Settings	mass density [kg/m3]	refractive index
[1]	785.1	–
[2]	–	1.3593

CCCCCCC [heptane]
speed of sound [m/s], [1]
Settings	283.15 K	293.15 K	303.15 K	313.15 K	323.15 K	333.15 K	343.15 K
100 kPa	1197.2	1153.9	1111.4	1068.8	1025.9	983.91	942.89
5100 kPa	1231.5	1189.6	1148.8	1108.9	1068.6	1028.8	989.64
10100 kPa	1263.8	1223.4	1184.1	1145.2	1107.3	1069.8	1032.5
20100 kPa	1323.2	1284.8	1248.7	1212.3	1176.7	1141.9	1108.4
30100 kPa	1376.7	1340.1	1306.4	1272.1	1239	1206.4	1174.6
40100 kPa	1426.3	1391.5	1359.2	1326.3	1295.3	1264.6	1234.9
50100 kPa	1472.5	1439	1408.5	1377.4	1346.7	1317.4	1289.3
60100 kPa	1515.6	1483.3	1454.5	1424.7	1395.2	1366.6	1339.5
70100 kPa	1556.1	1525.3	1497.4	1468.7	1440.1	1412.9	1387
80100 kPa	1593.8	1564.9	1538.3	1510.3	1482.6	1456	1431.2
90100 kPa	1629.7	1602.3	1577	1549.8	1522.8	1496.7	1472.7
95100 kPa	1646.4	1620.6	1595	1568.8	1542.2	1516.4	1492.7

Settings	mass density [kg/m3]	refractive index
[1]	679.5	–
[2]	–	1.3852

CCCCCCCC [octane]
speed of sound [m/s], [1]
Settings	283.15 K	293.15 K	303.15 K	313.15 K	323.15 K	333.15 K	343.15 K
100 kPa	1234.6	1193.7	1151.8	1112.1	1071.1	1030.9	990.7
5100 kPa	1267.1	1227.9	1187.6	1149	1110.4	1072.4	1034.3
10100 kPa	1296.9	1259.5	1221	1183.4	1146.1	1110.1	1074.2
20100 kPa	1353.6	1317.2	1282.1	1247.3	1212.3	1178.2	1145
30100 kPa	1405.7	1370.4	1336.8	1303.8	1271.6	1239.8	1208.7
40100 kPa	1453.5	1419.6	1388.1	1356.4	1325.3	1295	1265.9
50100 kPa	1498	1465.6	1435.5	1405.1	1375.2	1346.2	1318
60100 kPa	1539.8	1508.4	1480	1450.7	1421.8	1393.9	1367.8
70100 kPa	1579.8	1549	1521.7	1493.2	1465.5	1438.5	1412.8
80100 kPa	1619	1587.3	1561.4	1533.6	1506.6	1480.2	1455.5
90100 kPa	1652.4	1623.9	1598.9	1571.9	1545.7	1519.8	1496
95100 kPa	1670.7	1641.8	1617	1590.2	1564.5	1539	1515.2

Settings	mass density [kg/m3]	refractive index
[1]	698.4	–
[2]	–	1.3951
